Measurements reported in ChEMBL document CHEMBL3714742, “Pyrimido (4,5-b) indole derivatives” (2003).
Calls of active or inactive are those of the source. How the calls were made is not given here.

Key:
[1] = molecular target: T1, Dual specificity mitogen-activated protein kinase kinase 7 (Homo sapiens, UniProt O14733); assay: Inhibition of GST-tagged human MKK7 expressed in Escherichia coli (BL21(DE3) pLysS) co-expressing human MEKK catalytic domain using biotinylated and GST-tagged rat GST-KN-SAPKalpha substrate incubated for 1 hr by time-resolved fluorescence based assay
T1 sequence (O14733 whole entry): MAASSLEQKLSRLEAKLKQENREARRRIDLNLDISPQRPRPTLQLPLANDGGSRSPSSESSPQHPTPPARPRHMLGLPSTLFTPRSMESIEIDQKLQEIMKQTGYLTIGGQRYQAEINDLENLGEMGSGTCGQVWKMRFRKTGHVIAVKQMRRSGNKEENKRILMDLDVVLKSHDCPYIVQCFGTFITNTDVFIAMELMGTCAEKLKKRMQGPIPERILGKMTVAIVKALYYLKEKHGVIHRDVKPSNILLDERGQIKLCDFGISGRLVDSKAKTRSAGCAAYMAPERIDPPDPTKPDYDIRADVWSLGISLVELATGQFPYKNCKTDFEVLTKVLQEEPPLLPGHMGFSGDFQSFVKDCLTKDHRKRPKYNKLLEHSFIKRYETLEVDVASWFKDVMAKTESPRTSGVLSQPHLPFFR

Mus musculus [2] = assay: Inhibition of anti-CD3 antibody-induced IL2 production in Balb/c mouse dosed intravenously 5 mins before anti-CD3 antibody injection and measured 2 hrs post-challenge by ELISA; format: functional, organism-based
Mus musculus [3] = assay: Inhibition of anti-CD3 antibody-induced IL4 production in Balb/c mouse dosed intravenously 5 mins before anti-CD3 antibody injection and measured 2 hrs post-challenge by ELISA; format: functional, organism-based
Mus musculus [4] = assay: Inhibition of anti-CD3 antibody-induced IFNgamma production in Balb/c mouse dosed intravenously 5 mins before anti-CD3 antibody injection and measured 2 hrs post-challenge by ELISA; format: functional, organism-based
[5] = molecular target: T2, Dual specificity mitogen-activated protein kinase kinase 4 (Homo sapiens, UniProt P45985); assay: Inhibition of GST-tagged human MKK4 expressed in Escherichia coli (BL21(DE3) pLysS) co-expressing human MEKK catalytic domain using biotinylated and GST-tagged rat GST-KN-SAPKalpha substrate incubated for 2 hrs by time-resolved fluorescence based assay
T2 sequence (P45985 whole entry): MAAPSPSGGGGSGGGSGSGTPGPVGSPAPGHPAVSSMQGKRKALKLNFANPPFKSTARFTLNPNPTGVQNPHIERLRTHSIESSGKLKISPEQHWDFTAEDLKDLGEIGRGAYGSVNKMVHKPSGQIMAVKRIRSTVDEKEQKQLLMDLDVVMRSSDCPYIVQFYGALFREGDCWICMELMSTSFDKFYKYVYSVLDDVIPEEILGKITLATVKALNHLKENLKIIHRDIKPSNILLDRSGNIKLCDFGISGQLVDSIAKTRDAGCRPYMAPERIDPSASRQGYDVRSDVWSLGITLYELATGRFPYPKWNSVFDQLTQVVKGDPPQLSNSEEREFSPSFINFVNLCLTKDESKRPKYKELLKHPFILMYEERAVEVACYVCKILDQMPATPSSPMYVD

| SMILES | IC50 [1] [nM] | inhibition (Mus musculus [2]) | inhibition (Mus musculus [3]) | inhibition (Mus musculus [4]) | IC50 [5] [nM] |
| --- | --- | --- | --- | --- | --- |
| Nc1nc(N2CCCCCC2)c2c(n1)[nH]c1ccc(O)cc12 | < 1000 | Active | Active | Active | < 1000 |
| Cc1nc(NC(C)CO)c2c(n1)[nH]c1ccc(O)cc12 (stereo not given) | < 1000 | Active | Active | Active | < 1000 |
| Cc1nc(N2CCCCC2)c2c(n1)[nH]c1ccc(C(=O)O)cc12 | < 1000 | Active | Active | Active | < 1000 |
| Cc1nc(N2CCCCC2)c2c(n1)[nH]c1ccc(C(N)=O)cc12 | < 1000 | Active | Active | Active | < 1000 |
